Experimental data reported in US20060069132A1, “Azolecarboxamide herbicides” (priority 2004, published 2006).
Like-named read-outs stand apart in the source and are kept apart here.

Experiments:
large crabgrass = experiment: Test A pre-/postemergence herbicide test; format: in vivo, Digitaria sanguinalis; conditions: for pest or weed control at 500 g/ha / pest or weed control at 2000 g/ha: Digitaria sanguinalis, 240 h
Procedure, shortened: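 Visual injury scores on a 0–100 scale (100 = complete control) taken about ten days post-treatment in greenhouse against untreated controls; dash means no result. Treatments: preemergence soil spray and postemergence spray to runoff on one- to two-leaf plants 2 to 10 cm tall, surfactant-containing formulation.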

[1] = test system: smallflower umbrella sedge; experiment: Test C flooded paddy test; format: in vivo, Cyperus difformis; conditions: for pest or weed control at 62 g/ha / pest or weed control at 125 g/ha / pest or weed control at 250 g/ha / pest or weed control at 500 g/ha: Cyperus difformis; for pest or weed control at 500 g/ha / Plant response rating, Sedge, Umbrella: 500 g ai/ha
rice [2] = experiment: Test C flooded paddy test; format: in vivo, Oryza sativa; conditions: for plant injury at 62 g/ha / plant injury at 125 g/ha / plant injury at 250 g/ha / plant injury at 500 g/ha: Oryza sativa; for plant injury at 500 g/ha / Plant response rating, Rice: 500 g ai/ha
Procedure, shortened: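 Postemergence sprays applied to plants 2 to 18 cm tall (1- to 4-leaf stage); paddy species grown to 2-leaf stage under flooding. After 12 to 14 days in greenhouse, visual rating versus untreated controls on 0–100 scale (0 no effect, 100 complete control).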

rice [3] = experiment: Test B pre-/postemergence herbicide test; format: in vivo, Oryza sativa; conditions: for plant injury at 500 g/ha / plant injury at 125 g/ha: Oryza sativa, pre-emergence, 336 h
Procedure, shortened: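 Formulation: non-phytotoxic solvent mix with surfactant. Timing: preemergence on seed and postemergence on 2–18 cm plants, applied concurrently. Readout after 13–15 d greenhouse: visual 0–100 control rating against controls.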

[4] = post-emergence, Postemergence, 2000 g ai/ha, 0 to 100 scale, 0 no effect, 100 complete control, read-out: Plant response rating, Crabgrass, Large
[5] = pre-emergence, Preemergence, 500 g ai/ha, visual rating, 0 to 100 scale (0 no effect, 100 complete control), read-out: Crabgrass, Large plant response rating
[6] = 62 g ai/ha, scale 0 to 100 (0 no effect, 100 complete control), read-out: Sedge, Umbrella plant response rating
[7] = visual rating after 12 to 14 days, scale 0 to 100 (0 no effect, 100 complete control), read-out: Plant response rating, Sedge, Umbrella
[8] = 62 g ai/ha, scale 0 to 100 (0 no effect, 100 complete control), read-out: Rice plant response rating
[9] = visual rating after 12 to 14 days, scale 0 to 100 (0 no effect, 100 complete control), read-out: Plant response rating, Rice
[10] = 62 g ai/ha, scale 0 to 100 (0 no effect, 100 complete control)
[11] = 125 g ai/ha, scale of 0 to 100, 0 is no effect, 100 is complete control
[12] = 250 g ai/ha, scale of 0 to 100, 0 is no effect, 100 is complete control
[13] = visual rating after 12 to 14 days, scale 0 to 100 (0 no effect, 100 complete control)
[14] = post-emergence, Postemergence, 500 g ai/ha, 0 to 100 scale, 0 no effect, 100 complete control, read-out: Crabgrass, Large plant response rating
[15] = pre-emergence, Preemergence, 2000 g ai/ha, visual rating, 0 to 100 scale (0 no effect, 100 complete control), read-out: Crabgrass, Large plant response rating
[16] = 125 g ai/ha, scale 0 to 100 (0 no effect, 100 complete control), read-out: Sedge, Umbrella plant response rating
[17] = 250 g ai/ha, scale of 0 to 100, 0 is no effect, 100 is complete control, read-out: Sedge, Umbrella plant response rating
[18] = 125 g ai/ha, scale 0 to 100 (0 no effect, 100 complete control), read-out: Rice plant response rating
[19] = 250 g ai/ha, scale of 0 to 100, 0 is no effect, 100 is complete control, read-out: Rice plant response rating
[20] = 125 g ai/ha, 0 = no effect, 100 = complete control, read-out: Rice plant response rating (0 to 100 scale)
[21] = 500 g ai/ha, visual rating, 0 = no effect, 100 = complete control, read-out: Plant response rating, Rice
[22] = 125 g ai/ha, scale 0 to 100 (0 no effect, 100 complete control)

## CCn1nc(C(C)(C)C)cc1C(=O)Nc1cccc(C(=O)NCC(F)(F)F)c1 [Compound 43, 3-(1,1-dimethylethyl)-1-ethyl-N-[3-[[(2,2,2-trifluoroethyl)amino]carbonyl]-phenyl]-1H-pyrazole-5-carboxamide]
Large crabgrass; post-emergence, Postemergence, 500 g ai/ha, 0 to 100 scale, 0 no effect, 100 complete control, read-out: Plant response rating, Crabgrass, Large
  pest or weed control at 500 g/ha: 65%
Large crabgrass; [4]
  pest or weed control at 2000 g/ha: 90%
Large crabgrass; [5]
  pest or weed control at 500 g/ha: 75%
Large crabgrass; pre-emergence, Preemergence, 2000 g ai/ha, 0 to 100 scale, 0 no effect, 100 complete control, read-out: Crabgrass, Large plant response rating
  pest or weed control at 2000 g/ha: 90%
[1]; [6]
  pest or weed control at 62 g/ha: 30%
[1]; 125 g ai/ha, scale of 0 to 100, 0 is no effect, 100 is complete control, read-out: Sedge, Umbrella plant response rating
  pest or weed control at 125 g/ha: 50%
[1]; 250 g ai/ha, visual rating after 12 to 14 days, scale 0 to 100 (0 no effect, 100 complete control), read-out: Plant response rating, Sedge, Umbrella
  pest or weed control at 250 g/ha: 70%
[1]; [7]
  pest or weed control at 500 g/ha: 80%
Rice [2]; [8]
  plant injury at 62 g/ha: 0%
Rice [2]; 125 g ai/ha, scale of 0 to 100, 0 is no effect, 100 is complete control, read-out: Rice plant response rating
  plant injury at 125 g/ha: 0%
Rice [2]; 250 g ai/ha, visual rating after 12 to 14 days, scale 0 to 100 (0 no effect, 100 complete control), read-out: Plant response rating, Rice
  plant injury at 250 g/ha: 20%
Rice [2]; [9]
  plant injury at 500 g/ha: 20%

## CCOC(=O)c1cccc(NC(=O)c2cc(C(C)(C)C)nn2CCF)c1 [Compound 79]
Large crabgrass; Postemergence, 500 g ai/ha, 0 to 100 scale, 0 no effect, 100 complete control
  Plant response rating, Crabgrass, Large: 20
Large crabgrass; Postemergence, 2000 g ai/ha, 0 to 100 scale, 0 no effect, 100 complete control
  Plant response rating, Crabgrass, Large: 55
Large crabgrass; Preemergence, 500 g ai/ha, visual rating, 0 to 100 scale (0 no effect, 100 complete control)
  Crabgrass, Large plant response rating: 50
Large crabgrass; Preemergence, 2000 g ai/ha, 0 to 100 scale, 0 no effect, 100 complete control
  Crabgrass, Large plant response rating: 55
[1]; [10]
  Sedge, Umbrella plant response rating: 75
[1]; [11]
  Sedge, Umbrella plant response rating: 75
[1]; [12]
  Sedge, Umbrella plant response rating: 80
[1]; [13]
  Plant response rating, Sedge, Umbrella: 85
Rice [2]; [10]
  Rice plant response rating: 20
Rice [2]; [11]
  Rice plant response rating: 20
Rice [2]; [12]
  Rice plant response rating: 20
Rice [2]; [13]
  Plant response rating, Rice: 30

## CCn1nc(C(C)(C)C)cc1C(=O)Nc1cccc(C(=O)OC)n1 [Compound 143, methyl 6-[[[3-(1,1-dimethylethyl)-1-ethyl-1H-pyrazol-5-yl]carbonyl]amino]-2-pyridinecarboxylate]
Large crabgrass; [14]
  pest or weed control at 500 g/ha: 20%
Large crabgrass; [4]
  pest or weed control at 2000 g/ha: 30%
Large crabgrass; [5]
  pest or weed control at 500 g/ha: 0%
Large crabgrass; [15]
  pest or weed control at 2000 g/ha: 15%

## CCn1nc(C(C)(C)C)cc1C(=O)Nc1cc(C(=O)OC)ccn1 [Compound 151, methyl 2-[[[3-(1,1-dimethylethyl)-1-ethyl-1H-pyrazol-5-yl]carbonyl]amino]-4-pyridinecarboxylate]
Large crabgrass; [14]
  pest or weed control at 500 g/ha: 5%
Large crabgrass; [4]
  pest or weed control at 2000 g/ha: 10%
Large crabgrass; [5]
  pest or weed control at 500 g/ha: 0%
Large crabgrass; [15]
  pest or weed control at 2000 g/ha: 0%
Rice [3]; 500 g ai/ha, visual rating 0-100, 0 no effect, 100 complete control, read-out: Plant response rating, Rice
  plant injury at 500 g/ha: 0%
Rice [3]; preemergence, 125 g ai/ha, 0 to 100 scale, 0 is no effect, 100 is complete control, read-out: Plant response rating, Rice
  plant injury at 125 g/ha: 0%

## CCn1nc(C(C)(C)C)cc1C(=O)Nc1ccc(F)c(C(=O)N(C)C)c1 [Compound 236, N-[3-[(dimethylamino)carbonyl]-4-fluorophenyl]-3-(1,1-dimethylethyl)-1-ethyl-1H-pyrazole-5-carboxamide]
[1]; [6]
  pest or weed control at 62 g/ha: 0%
[1]; [16]
  pest or weed control at 125 g/ha: 20%
[1]; [17]
  pest or weed control at 250 g/ha: 45%
[1]; [7]
  pest or weed control at 500 g/ha: 55%
Rice [2]; [8]
  plant injury at 62 g/ha: 0%
Rice [2]; [18]
  plant injury at 125 g/ha: 30%
Rice [2]; [19]
  plant injury at 250 g/ha: 60%
Rice [2]; [9]
  plant injury at 500 g/ha: 70%
Rice [3]; [20]
  plant injury at 125 g/ha: 40%
Rice [3]; [21]
  plant injury at 500 g/ha: 60%

## CCNC(=O)c1cc(NC(=O)c2cn(C(C)(C)C)nc2CC)ccc1F [Compound 241, 1-(1,1-dimethylethyl)-3-ethyl-N-[3-[(ethylamino)carbonyl]-4-fluorophenyl]-1H-pyrazole-4-carboxamide]
[1]; [6]
  pest or weed control at 62 g/ha: 0%
[1]; [16]
  pest or weed control at 125 g/ha: 0%
[1]; [17]
  pest or weed control at 250 g/ha: 55%
[1]; [7]
  pest or weed control at 500 g/ha: 85%
Rice [2]; [8]
  plant injury at 62 g/ha: 0%
Rice [2]; [18]
  plant injury at 125 g/ha: 0%
Rice [2]; [19]
  plant injury at 250 g/ha: 30%
Rice [2]; [9]
  plant injury at 500 g/ha: 65%
Rice [3]; [20]
  plant injury at 125 g/ha: 0%
Rice [3]; [21]
  plant injury at 500 g/ha: 80%

## CCn1nc(C(C)(C)C)cc1C(=O)Nc1cc(C(=O)OC(C)C)c(F)cc1F [Compound 248]
Rice [3]; 125 g ai/ha, 0 = no effect, 100 = complete control, preemergence
  Rice plant response rating (0 to 100 scale): 0
Rice [3]; 500 g ai/ha, visual rating, 0 = no effect, 100 = complete control, preemergence
  Plant response rating, Rice: 0

## CCOC(=O)c1ccc(F)c(NC(=O)C2CC(C(C)(C)C)=NN2CC)c1 (stereo not shown) [Compound 267, ethyl 3-[[[3-(1,1-dimethylethyl)-1-ethyl-4,5-dihydro-1H-pyrazol-5-yl]carbonyl]amino]-4-fluorobenzoate]
Large crabgrass; [14]
  pest or weed control at 500 g/ha: 45%
Large crabgrass; [4]
  pest or weed control at 2000 g/ha: 75%
Large crabgrass; [15]
  pest or weed control at 2000 g/ha: 90%
Large crabgrass; pre-emergence, preemergence, 500 g ai/ha, visual injury, 0 to 100 scale (0 no effect, 100 complete control), read-out: Crabgrass, Large plant response rating
  pest or weed control at 500 g/ha: 15%
Rice [3]; [20]
  plant injury at 125 g/ha: 20%
Rice [3]; [21]
  plant injury at 500 g/ha: 40%

## CCc1nn(C(C)C)nc1C(=O)Nc1cccc(C(=O)N(C)C)c1 [Compound 358, N-[3-[(dimethylamino)carbonyl)phenyl]-5-ethyl-2-(1-methylethyl)-2H-1,2,3-triazole-4-carboxamide]
[1]; 62 g ai/ha, scale 0 to 100, read-out: Sedge, Umbrella plant response rating
  pest or weed control at 62 g/ha: 15%
[1]; [16]
  pest or weed control at 125 g/ha: 85%
[1]; [17]
  pest or weed control at 250 g/ha: 85%
[1]; [7]
  pest or weed control at 500 g/ha: 85%
Rice [2]; 62 g ai/ha, scale 0 to 100, read-out: Rice plant response rating
  plant injury at 62 g/ha: 20%
Rice [2]; [18]
  plant injury at 125 g/ha: 65%
Rice [2]; [19]
  plant injury at 250 g/ha: 70%
Rice [2]; [9]
  plant injury at 500 g/ha: 85%

## C#CCNC(=O)c1cccc(NC(=O)c2nn(C(C)(C)C)nc2CC)c1 [Compound 380]
[1]; 62 g ai/ha, scale 0 to 100
  Sedge, Umbrella plant response rating: 80
[1]; [22]
  Sedge, Umbrella plant response rating: 85
[1]; [12]
  Sedge, Umbrella plant response rating: 85
[1]; [13]
  Plant response rating, Sedge, Umbrella: 90
Rice [2]; 62 g ai/ha, scale 0 to 100
  Rice plant response rating: 45
Rice [2]; [22]
  Rice plant response rating: 65
Rice [2]; [12]
  Rice plant response rating: 70
Rice [2]; [13]
  Plant response rating, Rice: 75

## C#CCOc1cccc(NC(=O)c2cc(C(C)(C)C)nn2CC)c1 [Compound 411]
[1]; 62 g ai/ha, scale 0 to 100
  Sedge, Umbrella plant response rating: 60
[1]; [22]
  Sedge, Umbrella plant response rating: 75
[1]; [12]
  Sedge, Umbrella plant response rating: 80
[1]; [13]
  Plant response rating, Sedge, Umbrella: 85
Rice [2]; 62 g ai/ha, scale 0 to 100
  Rice plant response rating: 0
Rice [2]; [22]
  Rice plant response rating: 25
Rice [2]; [12]
  Rice plant response rating: 35
Rice [2]; [13]
  Plant response rating, Rice: 35

## C=CCOc1cccc(NC(=O)c2cc(C(C)(C)C)nn2CC)c1 [Compound 412]
[1]; 62 g ai/ha, scale 0 to 100
  Sedge, Umbrella plant response rating: 70
[1]; [22]
  Sedge, Umbrella plant response rating: 75
[1]; [12]
  Sedge, Umbrella plant response rating: 80
[1]; [13]
  Plant response rating, Sedge, Umbrella: 95
Rice [2]; 62 g ai/ha, scale 0 to 100
  Rice plant response rating: 15
Rice [2]; [22]
  Rice plant response rating: 20
Rice [2]; [12]
  Rice plant response rating: 20
Rice [2]; [13]
  Plant response rating, Rice: 50
